# Reference: patent US12662491B2 (Redona Therapeutics, Inc., priority 2020, dated 2026)
# pIC50: −log10 of the molar value.
# Molecular target: T1, Zcchc11 enzyme (Homo sapiens, UniProt Q5TAX3)
# T1 construct: made in house; host or cells: HEK293 cells (Zcchc11); E. coli Rosetta II (LIN28A)
# T1 sequence (Q5TAX3 212-1420): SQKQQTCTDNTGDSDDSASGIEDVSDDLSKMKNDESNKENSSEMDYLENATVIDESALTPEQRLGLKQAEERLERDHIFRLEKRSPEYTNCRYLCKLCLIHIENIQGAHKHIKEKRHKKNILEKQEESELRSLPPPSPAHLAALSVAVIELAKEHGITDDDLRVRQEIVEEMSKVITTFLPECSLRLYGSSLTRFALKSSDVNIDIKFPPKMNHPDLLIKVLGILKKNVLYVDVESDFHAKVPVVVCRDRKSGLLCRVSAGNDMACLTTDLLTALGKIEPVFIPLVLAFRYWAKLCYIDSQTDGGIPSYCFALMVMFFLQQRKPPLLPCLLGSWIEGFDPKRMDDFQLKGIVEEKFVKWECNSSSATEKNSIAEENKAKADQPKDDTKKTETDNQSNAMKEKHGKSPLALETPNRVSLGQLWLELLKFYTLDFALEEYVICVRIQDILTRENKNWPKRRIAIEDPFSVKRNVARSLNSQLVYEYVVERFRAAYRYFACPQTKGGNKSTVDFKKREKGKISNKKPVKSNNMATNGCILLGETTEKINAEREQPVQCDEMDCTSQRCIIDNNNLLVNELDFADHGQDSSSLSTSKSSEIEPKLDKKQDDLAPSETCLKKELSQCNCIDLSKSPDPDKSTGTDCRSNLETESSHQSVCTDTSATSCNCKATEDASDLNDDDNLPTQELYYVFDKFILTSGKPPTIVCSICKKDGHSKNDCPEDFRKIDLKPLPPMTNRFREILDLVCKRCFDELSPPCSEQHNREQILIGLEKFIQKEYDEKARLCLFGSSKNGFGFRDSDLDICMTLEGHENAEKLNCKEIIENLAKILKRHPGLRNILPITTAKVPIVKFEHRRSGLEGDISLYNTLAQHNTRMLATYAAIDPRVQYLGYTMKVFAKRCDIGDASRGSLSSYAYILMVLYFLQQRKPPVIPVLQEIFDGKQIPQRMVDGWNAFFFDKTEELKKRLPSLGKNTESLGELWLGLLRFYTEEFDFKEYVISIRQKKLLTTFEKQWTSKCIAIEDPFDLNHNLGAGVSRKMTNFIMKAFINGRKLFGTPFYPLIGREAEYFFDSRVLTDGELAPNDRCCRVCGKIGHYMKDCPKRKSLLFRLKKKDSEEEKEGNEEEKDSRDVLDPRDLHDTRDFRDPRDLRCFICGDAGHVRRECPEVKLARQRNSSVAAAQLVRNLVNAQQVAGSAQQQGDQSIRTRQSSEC
# Assay: TUTase assay (Zcchc11 assay, Lin28a-dependent polyuridylation of pre-let-7)
# Type: biochemical
# Details: Lin28a-dependent Zcchc11 (Z11) TUTase assay; read-out: Potency Lin28a-dep Z11 IC50
# Summary of the method: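 LIN28A (10 nM) in pH 7.3 HEPES/KCl/MgCl2/DTT buffer was mixed with serially diluted compound, then 0.2 nM truncated human Zcchc11 and 2 nM labeled pre-let-7 were added for 30 min at room temperature. UTP (5 uM) and quench probe (4 nM) then started the reaction. Linear early rates gave IC50 values.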
row,SMILES,pIC50
1,"O=C(O)c1cn(-c2cnc(CO)cn2)c2cc(N3CCC[C@@H]3COc3ncccc3Cl)c(Cl)cc2c1=O [Example 411, (R)-6-chloro-7-(2-(((3-chloropyridin-2-yl)oxy)methyl)pyrrolidin-1-yl)-1-(5-(hydroxy-methyl)pyrazin-2-yl)-4-oxo-1,4-dihydroquinoline-3-carboxylic acid]",≥ 6.00
2,"COCCNc1ccc(-n2cc(C(=O)O)c(=O)c3cc(Cl)c(N4CCC[C@@H]4COc4ncccc4Cl)cc32)cn1 [Example 413, (R)-6-chloro-7-(2-(((3-chloropyridin-2-yl)oxy)methyl)pyrrolidin-1-yl)-1-(6-((2-methoxyethyl)amino)pyridin-3-yl)-4-oxo-1,4-dihydroquinoline-3-carboxylic acid]",≥ 6.00
3,"CN(C)CCOc1ccc(-n2cc(C(=O)O)c(=O)c3cc(Cl)c(N4CCC[C@@H]4COc4ncccc4Cl)cc32)cn1 [Example 418, (R)-6-chloro-7-(2-(((3-chloropyridin-2-yl)oxy)methyl)pyrrolidin-1-yl)-1-(6-(2-(dimethylamino)ethoxy)pyridin-3-yl)-4-oxo-1,4-dihydroquinoline-3-carboxylic acid]",≥ 6.00
4,"CN(C)c1ccc(-n2cc(C(=O)O)c(=O)c3cc(Cl)c(N4CCC[C@@H]4COc4ncccc4Cl)cc32)cn1 [Example 421, (R)-6-chloro-7-(2-(((3-chloropyridin-2-yl)oxy)methyl)pyrrolidin-1-yl)-1-(6-(dimethyl-amino)pyridin-3-yl)-4-oxo-1,4-dihydroquinoline-3-carboxylic acid]",≥ 6.00
5,"O=C(O)c1cn(-c2cnccn2)c2cc(N3CCC[C@@H]3COc3ncccc3Cl)c(Cl)cc2c1=O [Example 425, (R)-6-chloro-7-(2-(((3-chloropyridin-2-yl)oxy)methyl)pyrrolidin-1-yl)-4-oxo-1-(pyrazin-2-yl)-1,4-dihydroquinoline-3-carboxylic acid]",≥ 6.00
6,"CS(=O)(=O)Nc1ccc(-n2cc(C(=O)O)c(=O)c3cc(Cl)c(N4CCC[C@@H]4COc4ncccc4Cl)cc32)cc1 [Example 427, (R)-6-chloro-7-(2-(((3-chloropyridin-2-yl)oxy)methyl)pyrrolidin-1-yl)-1-(4-(methyl-sulfonamido)phenyl)-4-oxo-1,4-dihydroquinoline-3-carboxylic acid]",≥ 6.00
7,"O=C(O)c1cn(-c2ccnc(O)c2)c2cc(N3CCC[C@@H]3COc3ncccc3Cl)c(Cl)cc2c1=O [Example 428, (R)-6-chloro-7-(2-(((3-chloropyridin-2-yl)oxy)methyl)pyrrolidin-1-yl)-1-(2-hydroxypyridin-4-yl)-4-oxo-1,4-dihydroquinoline-3-carboxylic acid]",≥ 6.00
8,"O=C(O)c1cn(-c2ccc(CO)nc2)c2cc(N3CCC[C@@H]3COc3ncccc3Cl)c(Cl)cc2c1=O [Example 429, (R)-6-chloro-7-(2-(((3-chloropyridin-2-yl)oxy)methyl)pyrrolidin-1-yl)-1-(6-(hydroxymethyl)pyridin-3-yl)-4-oxo-1,4-dihydroquinoline-3-carboxylic acid]",≥ 6.00
9,"O=C(O)c1cn(-c2ccc(N3CCOCC3)nc2)c2cc(N3CCC[C@@H]3COc3ncccc3Cl)c(Cl)cc2c1=O [Example 431, (R)-6-chloro-7-(2-(((3-chloropyridin-2-yl)oxy)methyl)pyrrolidin-1-yl)-1-(6-morpholino-pyridin-3-yl)-4-oxo-1,4-dihydroquinoline-3-carboxylic acid]",≥ 6.00

# Results, then the molecule that gave them:
row,pIC50,SMILES
1,≥ 6.00,"Cc1cccnc1OC[C@H]1CCCN1c1cc2c(cc1F)c(=O)c(C(=O)O)cn2-c1ccc(NS(C)(=O)=O)cc1 [Example 412, (R)-6-fluoro-7-(2-(((3-methylpyridin-2-yl)oxy)methyl)pyrrolidin-1-yl)-1-(4-(methyl-sulfonamido)phenyl)-4-oxo-1,4-dihydroquinoline-3-carboxylic acid]"
2,≥ 6.00,"O=C(O)c1cn(-c2ccc(O)nc2)c2cc(N3CCC[C@@H]3COc3ncccc3Cl)c(Cl)cc2c1=O [Example 414, (R)-6-chloro-7-(2-(((3-chloropyridin-2-yl)oxy)methyl)pyrrolidin-1-yl)-1-(6-hydroxy-pyridin-3-yl)-4-oxo-1,4-dihydroquinoline-3-carboxylic acid]"
3,≥ 6.00,"COCCOc1ccc(-n2cc(C(=O)O)c(=O)c3cc(Cl)c(N4CCC[C@@H]4COc4ncccc4Cl)cc32)cn1 [Example 415, (R)-6-chloro-7-(2-(((3-chloropyridin-2-yl)oxy)methyl)pyrrolidin-1-yl)-1-(6-(2-methoxy-ethoxy)pyridin-3-yl)-4-oxo-1,4-dihydroquinoline-3-carboxylic acid]"
4,≥ 6.00,"CN(C)CCNc1ccc(-n2cc(C(=O)O)c(=O)c3cc(Cl)c(N4CCC[C@@H]4COc4ncccc4Cl)cc32)cn1 [Example 416, (R)-6-chloro-7-(2-(((3-chloropyridin-2-yl)oxy)methyl)pyrrolidin-1-yl)-1-(6-((2-(dimethylamino)ethyl)amino)pyridin-3-yl)-4-oxo-1,4-dihydroquinoline-3-carboxylic acid]"
5,≥ 6.00,"CNc1ccc(-n2cc(C(=O)O)c(=O)c3cc(Cl)c(N4CCC[C@@H]4COc4ncccc4Cl)cc32)cn1 [Example 417, (R)-6-chloro-7-(2-(((3-chloropyridin-2-yl)oxy)methyl)pyrrolidin-1-yl)-1-(6-(methylamino)pyridin-3-yl)-4-oxo-1,4-dihydroquinoline-3-carboxylic acid]"
6,≥ 6.00,"COCCOc1cnc(-n2cc(C(=O)O)c(=O)c3cc(Cl)c(N4CCC[C@@H]4COc4ncccc4Cl)cc32)cn1 [Example 419, (R)-6-chloro-7-(2-(((3-chloropyridin-2-yl)oxy)methyl)pyrrolidin-1-yl)-1-(5-(2-methoxy-ethoxy)pyrazin-2-yl)-4-oxo-1,4-dihydroquinoline-3-carboxylic acid]"
7,≥ 6.00,"COCCN(C)c1ccc(-n2cc(C(=O)O)c(=O)c3cc(Cl)c(N4CCC[C@@H]4COc4ncccc4Cl)cc32)cn1 [Example 420, (R)-6-chloro-7-(2-(((3-chloropyridin-2-yl)oxy)methyl)pyrrolidin-1-yl)-1-(6-((2-methoxy-ethyl)(methyl)amino)pyridin-3-yl)-4-oxo-1,4-dihydroquinoline-3-carboxylic acid]"
8,≥ 6.00,"O=C(O)c1cn(-c2ccc(N3CCC3)nc2)c2cc(N3CCC[C@@H]3COc3ncccc3Cl)c(Cl)cc2c1=O [Example 422, (R)-1-(6-(azetidin-1-yl)pyridin-3-yl)-6-chloro-7-(2-(((3-chloropyridin-2-yl)oxy)methyl)pyrrolidin-1-yl)-4-oxo-1,4-dihydroquinoline-3-carboxylic acid]"
9,≥ 6.00,"O=C(O)c1cn(-c2ccc(N3CC(O)C3)nc2)c2cc(N3CCC[C@@H]3COc3ncccc3Cl)c(Cl)cc2c1=O [Example 423, (R)-6-chloro-7-(2-(((3-chloropyridin-2-yl)oxy)methyl)pyrrolidin-1-yl)-1-(6-(3-hydroxy-azetidin-1-yl)pyridin-3-yl)-4-oxo-1,4-dihydroquinoline-3-carboxylic acid]"
10,≥ 6.00,"CN(C)c1cnc(-n2cc(C(=O)O)c(=O)c3cc(Cl)c(N4CCC[C@@H]4COc4ncccc4Cl)cc32)cn1 [Example 424, (R)-6-chloro-7-(2-(((3-chloropyridin-2-yl)oxy)methyl)pyrrolidin-1-yl)-1-(5-(dimethylamino)pyrazin-2-yl)-4-oxo-1,4-dihydroquinoline-3-carboxylic acid]"
11,≥ 6.00,"CC(=O)Nc1ccc(-n2cc(C(=O)O)c(=O)c3cc(Cl)c(N4CCC[C@@H]4COc4ncccc4Cl)cc32)cn1 [Example 426, (R)-1-(6-acetamidopyridin-3-yl)-6-chloro-7-(2-(((3-chloro-pyridin-2-yl)oxy)methyl)pyrrolidin-1-yl)-4-oxo-1,4-dihydroquinoline-3-carboxylic acid]"
12,≥ 6.00,"O=C(O)c1cn(-c2ccc(N3CCCCC3)nc2)c2cc(N3CCC[C@@H]3COc3ncccc3Cl)c(Cl)cc2c1=O [Example 430, (R)-6-chloro-7-(2-(((3-chloropyridin-2-yl)oxy)methyl)pyrrolidin-1-yl)-4-oxo-1-(6-(piperidin-1-yl)pyridin-3-yl)-1,4-dihydroquinoline-3-carboxylic acid]"
